Reference: US12486239B2, “Benzotriazole compound, light absorber, and resin composition” (MITSUI CHEMICALS, INC., priority 2019, dated 2025)

Legend:
Type in all cases: physicochemical
[1] = Maximum absorption wavelength and gram absorption coefficient, toluene solution 0.01 g/L (first embodiment); conditions: optical path length 10 mm
Experimental: The maximum absorption wavelength of the benzotriazole compound of the first embodiment is measured using a spectrophotometer (for example, Shimadzu Spectrophotometer UV-1600 manufactured by Shimadzu Corporation) at an optical path length of 10 mm using a toluene solution having a concentration of 0.01 g/L.
In Examples according to the first embodiment, the maximum absorption wavelength and the gram absorption coefficient of the benzotriazole compound were measured using a Shimadzu Spectrophotometer UV-1600 manufactured by Shimadzu Corporation at an optical path length of 10 mm using a toluene solution having a concentration of 0.01 g/L.

[2] = Solubility to various organic solvents; conditions: room temperature; for Solubility to various organic solvents: PGMEA / Solubility to various organic solvents: Ethyl acetate / Solubility to various organic solvents: MEK / Solubility to various organic solvents: MMA / Solubility to various organic solvents: Toluene: Table 1
Experimental: As Comparative Example 1, the solubility of TINUVIN326 (manufactured by BASF Japan Ltd.) represented by the following Formula (TI) was measured by the following method.
(§1) To 0.5 g of the benzotriazole compound, the various organic solvents shown in Table 1 were added such that the total mass was about 10 g, the mixture was irradiated with ultrasonic waves for about 30 minutes, and thereafter stirred at room temperature for 2 hours to prepare a dispersion of about 10% by mass.
The dispersion was filtered through a membrane filter (0.2 μm), and the obtained residue was dried in a dryer at 60° C. for 1 hour, and then the mass of the residue was measured.
The solubility of the benzotriazole compound to the solvent was expressed by the following formula. Solubility (% by mass)=(W0−W1)/W0
W0 is the mass of the benzotriazole compound before the treatment, and W1 is the mass of the residue after drying (that is, the dissolution residue of the benzotriazole compound). In a case in which no residue remained on the filter, the solubility was determined as 5% by mass or more.
The solubility of the benzotriazole compound obtained in each Example and Comparative Example was measured by the following method.
as §1, with “Table 6” for “Table 1”

[3] = Heat resistance: TG5% decomposition temperature; conditions: nitrogen atmosphere, heating rate 10° C./min; for T-5% by mass: Table 2; for Decomposition temperature (Tg-5% by mass): Table 6
Experimental: In each Example and Comparative Example, the decomposition temperature was measured by the following method.
Using a thermal analyzer Rigaku ThermoPlus Evo TG8120, the TG5% decomposition temperature (T-5% by mass) was measured under a nitrogen atmosphere at a heating rate of 10° C./min and a temperature range of from room temperature to 500° C.
The higher the T-5% by mass, the higher the heat resistance.
The decomposition temperature of the benzotriazole compound obtained in each Example and Comparative Example was measured by the following method.

| SMILES | gram absorption coefficient [1] | maximum absorption [1] | Solubility to various organic solvents: PGMEA ([2]; PGMEA) | Solubility to various organic solvents: Ethyl acetate ([2]; ethyl acetate) | Solubility to various organic solvents: MEK ([2]; methyl ethyl ketone) | Solubility to various organic solvents: MMA ([2]; methyl methacrylate) | Solubility to various organic solvents: Toluene ([2]; toluene) | T-5% by mass [3] | Solubility: PGMEA ([2]; Table 6, PGMEA) | Solubility: EA ([2]; Table 6, ethyl acetate) | Solubility: MEK ([2]; Table 6, methyl ethyl ketone) | Solubility: MMA ([2]; Table 6, methyl methacrylate) | Solubility: Toluene ([2]; Table 6, toluene) | Decomposition temperature (Tg-5% by mass) [3] | Decomposition temperature (Tg-5% by mass) ([3]; listed as Comparative Example 1C) |
| --- | --- | --- | --- | --- | --- | --- | --- | --- | --- | --- | --- | --- | --- | --- | --- |
| CCCCCNc1ccc(-n2nc3ccc(Cl)cc3n2)c(O)c1 [Compound (3)] | 9.77×10^4 g/mL·cm | 387 nm |  |  |  |  |  |  |  |  |  |  |  |  |  |
| Oc1cc(NC2CCCCC2)ccc1-n1nc2ccc(Cl)cc2n1 [Compound (4)] | 9.76×10^4 g/mL·cm | 389.5 nm |  |  |  |  |  |  |  |  |  |  |  |  |  |
| CCCCCCC(=O)N(c1ccccc1)c1ccc(-n2nc3ccc(Cl)cc3n2)c(O)c1 [Compound (22)] | 6.1×10^4 g/mL·cm | 355 nm |  |  |  |  |  |  |  |  |  |  |  |  |  |
| CCCCCCC(=O)Nc1ccc(-n2nc3ccc(Cl)cc3n2)c(O)c1 [Compound (53)] | 7.9×10^4 g/mL·cm | 359.0 nm | 1 % by mass | 1 % by mass | 1 % by mass | 1 % by mass | 0.5 % by mass | 323.5 °C |  |  |  |  |  |  |  |
| CCCCCCCCSc1ccc2nn(-c3ccc(NC(=O)CCCCCC)cc3O)nc2c1 [Compound (54)] | 7.10×10^4 g/mL·cm | 371.0 nm | 0.3 % by mass | 0.3 % by mass | 1 % by mass | 0.5 % by mass | 0.3 % by mass | 359.7 °C |  |  |  |  |  |  |  |
| CCCCCCC(=O)Nc1ccc(-n2nc3ccc(Sc4ccc(C(C)(C)C)cc4)cc3n2)c(O)c1 [Compound (55)] | 6.9×10^4 g/mL·cm | 371.0 nm | 5 or more % by mass | 5 % by mass | 5 % by mass | 5 or more % by mass | 2 % by mass | 359.4 °C |  |  |  |  |  |  |  |
| CCCCC(CC)C(=O)Nc1ccc(-n2nc3ccc(Cl)cc3n2)c(O)c1 (stereo not drawn) [Compound (56)] | 7.48×10^4 g/mL·cm | 359.0 nm | 0.8 % by mass | 0.8 % by mass | 2 % by mass | 1.2 % by mass | 0.2 % by mass | 312.7 °C |  |  |  |  |  |  |  |
| CCCCC(CC)C(=O)Nc1ccc(-n2nc3ccc(Sc4ccc(C(C)(C)C)cc4)cc3n2)c(O)c1 (stereo not drawn) [Compound (58)] | 6.61×10^4 g/mL·cm | 371.5 nm | 2 % by mass | 3 % by mass | 5 or more % by mass | 5 or more % by mass | 2 % by mass | 374.7 °C |  |  |  |  |  |  |  |
| CCC(C)(C)C(=O)Nc1ccc(-n2nc3ccc(Cl)cc3n2)c(O)c1 [Compound (59)] | 8.40×10^4 g/mL·cm | 359.0 nm | 5 or more % by mass | 5 or more % by mass | 5 or more % by mass | 5 or more % by mass | 2 % by mass | 309.1 °C |  |  |  |  |  |  |  |
| O=C(Nc1ccc(-n2nc3ccc(Cl)cc3n2)c(O)c1)c1ccccc1 [Compound (61)] | 9.37×10^4 g/mL·cm | 360.0 nm |  |  |  |  |  |  |  |  |  |  |  |  |  |
| CCN(CC)C(=O)Nc1ccc(-n2nc3ccc(Cl)cc3n2)c(O)c1 [Compound (81)] | 1.07×10^5 g/mL·cm | 372.5 nm |  |  |  |  |  | 230.1 °C |  |  |  |  |  |  |  |
| CCC(C)(C)C(=O)Nc1ccc(-n2nc3ccc(Sc4ccc(C(C)(C)C)cc4)cc3n2)c(O)c1 [Compound (101)] | 7.02×10^4 g/mL·cm | 371.5 nm | 1 % by mass | 1.5 % by mass | 3 % by mass | 3 % by mass | 1 % by mass | 366.1 °C |  |  |  |  |  |  |  |
| CC(=O)Nc1ccc(-n2nc3ccc(Cl)cc3n2)c(O)c1 [Compound (102)] | 5.19×10^4 g/mL·cm | 347.0 nm |  |  |  |  |  |  |  |  |  |  |  |  |  |
| O=C(Nc1ccc(-n2nc3ccc(Cl)cc3n2)c(O)c1)C1CCCCC1 [Compound (103)] | 8.48×10^4 g/mL·cm | 359.0 nm |  |  |  |  |  | 335.7 °C |  |  |  |  |  |  |  |
| CC(C)(C)c1ccc(CSc2ccc3nn(-c4ccc(NC(=O)C5CCCCC5)cc4O)nc3c2)cc1 [Compound (104)] | 6.90×10^4 g/mL·cm | 371.0 nm |  |  |  |  |  | 313.1 °C |  |  |  |  |  |  |  |
| O=C1CCc2cc(-n3nc4ccc(Cl)cc4n3)c(O)cc2N1 [Compound (105)] | 7.28×10^4 g/mL·cm | 365.5 nm |  |  |  |  |  |  |  |  |  |  |  |  |  |
| CCNc1cc(O)c(-n2nc3ccc(OC)cc3n2)cc1C [Compound (111)] | 1.04×10^5 g/mL·cm | 378.5 nm | 3 % by mass | 5 % by mass | 10 % by mass | 4 % by mass | 1 % by mass | 252.6 °C |  |  |  |  |  |  |  |
| CCCCC(CC)C(=O)Nc1ccc(-n2nc3ccc(Sc4ccccc4)cc3n2)c(O)c1 (stereo not drawn) [Compound (112)] | 7.47×10^4 g/mL·cm | 370.0 nm | 2 or more % by mass | 3 or more % by mass | 10 or more % by mass | 4 or more % by mass | 1 or more % by mass | 368.0 °C |  |  |  |  |  |  |  |
| CCCCC(CC)C(=O)Nc1ccc(-n2nc3ccc(Sc4ccc(C)cc4)cc3n2)c(O)c1 (stereo not drawn) [Compound (113)] | 6.98×10^4 g/mL·cm | 371.5 nm | 1 or more % by mass | 1 or more % by mass | 2.5 or more % by mass | 2 or more % by mass | 0.5 or more % by mass | 365.5 °C |  |  |  |  |  |  |  |
| Cc1cc(-n2nc3ccc(Cl)cc3n2)c(O)c(C(C)(C)C)c1 [TINUVIN326, 2-(5-chloro-2-benzotriazol)-6-tert-butyl-p-cresol, reference compound] |  |  | 1 % by mass | 3 % by mass | 3 % by mass | 5 % by mass | 5 or more % by mass | 219.2 °C | 1 % by mass | 3 % by mass | 3 % by mass | 5 % by mass | 5≤ % by mass | 219.2 °C | lower than that of Examples |
